Assay results published in patent publication US20250295668A1, “METHODS FOR INDUCING COLANIC ACID BIOSYNTHESIS” (priority 2024, published 2025).
“And” between values parts separate entries of the source, which are not always exact repeats. Equal values may be shown once.

Tested on: wildtype E. coli
Experiment: Colanic acid measurement (fucose quantification) in wildtype E. coli culture medium
Assay type: cell-based
Experimental: For colanic acid quantification, E. coli Keio mutants and the parental strain BW25113 were cultured overnight at 37° C. in M9 minimum medium [PMID: 28436966]. Bacteria were then removed by centrifugation and filtered for colanic acid measurement.
The desired bacterial strain was first inoculated and cultured in M9 minimum medium overnight at 37° C. to obtain the seeding culture. The OD 600 was measured, and the seeding bacteria were diluted to OD600=0.02 in M9 minimum medium for another 16 hours. After the incubation, bacterial cultures were collected in 50 mL tubes, spun down at 4,000 g at 4° C. for 30 min, filtered, and 25 mL of supernatant was collected per 50 ml conical tube. Ice-cold 100% ethanol (EtOH) was added to make a final 50% EtOH solution for precipitation, and the mixture was kept at 4° C. overnight. Once precipitation occurred, the liquid was carefully removed after centrifugation at 4,000 g at 4° C. for 50 min. The pellet was washed once with cold 80% EtOH and then air-dried in a hood. The pellet from every 50 mL culture was resuspended in 500 μL distilled H2O. The solution was sonicated for 60 minutes at 37° C., followed by centrifugation at 4000 g at 4° C. for 10 minutes. A 200 μL sample was mixed with 30 μL hydrochloric acid (320331-500 mL, Sigma-Aldrich) and boiled for 2 hours. Subsequently, 60 μL 5M NaOH and 150 μL NaHCO3/NaOH buffer were added to reach a pH of 6-8, calibrated by 1M HCl or NaOH solutions. The fucose quantification assay was then carried out using a K-FUCOSE kit (Megazyme) according to the manufacturer's protocol.
Next, colanic acid in the bacteria culture medium was quantified via monosaccharide-fucose-from acid-hydrolyzed polysaccharide precipitates. […] Calculations were performed to determine the equivalent dosage by weight in a mammalian subject. Briefly, a typical mouse consumes 5-10 ml of water per day and weighs between 30-40 g. Using the 1.8 μg/mL concentration, a lower bound of 0.225 mg/kg (0.0018 mg/mL×5 ml[…]0.04 kg) and a higher bound of 0.6 mg/kg (0.0018 mg/mL×10 ml÷0.03 kg) were identified. […] In wild-type bacteria treated with cephaloridine and Alon E. coli mutants colanic acid production increased during the exponential growth phase and remained elevated in the stationary phase (FIG. 1D).

## O=C(Cc1cccs1)N[C@@H]1C(=O)N2C(C(=O)[O-])=C(C[n+]3ccccc3)CS[C@H]12 [cephaloridine]
Cephaloridine 1.8 μg/mL, 37° C.
  colanic acid production vs untreated wildtype control: 6 fold
Range of doses below MIC
  optimal concentration for inducing colanic acid biosynthesis: 1.8 μg/mL and 4.3 μM
